Assay results taken from article PMC10482691, “LTP induction by structural rather than enzymatic functions of CaMKII” (Nature, 2023).
“And” between values parts separate entries of the source, which are not always exact repeats. Equal values may be shown once.

System: CA1 LTP in CaMKII F89G-expressing slices
Assay: LTP field recordings in slices of CaMKIIα KO mice injected with AAV-mScarlet-CaMKII-F89G
Type: cell-based, mouse
Conditions: for LTP time course, normalized response per slice (sheet 5d): individual slices, NM-PP1 vs Vehicle, in %
Procedure: Stereotactic injections were performed on P24 CaMKIIα KO mice. Animals were anesthetized with an intraperitoneal injection of 2,2,2-Tribromoethanol (250 mg kg^−1) and then head fixed to a stereotactic frame (David Kopf Instruments). AAVs (0.2–0.5 µl) were injected into intermediate CA1 at a rate of […] using a syringe pump (World Precision Instruments). Coordinates (in millimetres) were anterior–posterior: −3.17; mediolateral: ±3.45 (relative to Bregma); and dorsoventral: −2.5 (relative to pia). To confirm specificity of the injection site following LTP recordings, slices were fixed in 4% paraformaldehyde; then, they were coverslipped and imaged on an Olympus slide scanning microscope.
WT and mutant mouse hippocampal slices were prepared using P56–P70 mice. Isoflurane-anesthetized mice were rapidly decapitated, and the brain was dissected in an ice-cold high-sucrose solution containing 220 mM sucrose, 12 mM MgSO4, 10 mM glucose, 0.2 mM CaCl2, 0.5 mM KCl, 0.65 mM NaH2PO4, 13 mM NaHCO3 and 1.8 mM ascorbate. Transverse hippocampal slices (400 μm) were made using a tissue chopper (McIlwain) and transferred into 32 °C ACSF containing 124 mM NaCl, 3.5 mM KCl, 1.3 mM NaH2PO4, 26 mM NaHCO3, 10 mM glucose, 2 mM CaCl2, 1 mM MgSO4 and 1.8 mM ascorbate. All slices were recovered in 95% O2/5% CO2 for at least 1.5 h before experimentation.
For electrophysiological slice recording experiments, a glass micropipette (typical resistance of 0.4–0.8 megaohm when filled with ACSF) was used to record fEPSPs from the CA1 dendritic layer in response to stimulation of the Schaffer collaterals using a tungsten bipolar electrode. Slices were continually perfused with 30.5 °C ± 0.5 °C ACSF at a rate of 2.5 ± 0.5 ml min^−1 during recordings. Stimuli were delivered every 20 s, and three responses (1 min) were averaged for analysis. Data were analysed using WinLTP software with slope calculated as the initial rise from 10 to 60% of the response peak. Input–output curves were generated by increasing the stimulus intensity at a constant interval until a maximum response or population spike was noted to determine stimulation that elicits 50% of maximum slope. […] A stable baseline was acquired for a minimum of 20 min at 50% maximum slope before high-frequency stimulation (HFS; 2 × 100 Hz, 10 s interval) was applied. Responses were recorded for 40 or 60 min after HFS. Change in slope was calculated as a ratio of the average slope of the 20 min baseline (before HFS). Bar graphs of the percentage of fEPSP slope were calculated by averaging the last 10 min time points post-HFS and normalized to baseline.

CC(C)(C)n1nc(Cc2cccc3ccccc23)c2c(N)ncnc21 [NM-PP1]
effect on LTP induction in CaMKII F89G slices (NM-PP1 10 μM): enabled
LTP time course, normalized response per slice (sheet 5d) (Time (min) 0): 103.829 and 96.437 and 102.744 and 120.959 and 123.914 and 192.297 and 144.344 and 104.217 and 103.642 and 100.747 and 103.258 and 105.141 and 101.674 and 96.3411 and 105.44
LTP time course, normalized response per slice (sheet 5d) (Time (min) 2.33333): 150.168 and 204.285 and 322.186 and 119.321 and 114.899 and 190.522 and 128.721 and 184.151 and 177.879 and 161.407 and 188.756 and 121.03 and 118.847 and 177.028 and 124.93
LTP time course, normalized response per slice (sheet 5d) (Time (min) 4.33333): 139.017 and 204.469 and 290.028 and 113.213 and 106.868 and 195.712 and 130.419 and 192.043 and 166.691 and 143.621 and 171.089 and 117.041 and 117.676 and 154.052 and 148.947
LTP time course, normalized response per slice (sheet 5d) (Time (min) 6.33333): 131.831 and 176.494 and 247.758 and 112.468 and 113.588 and 169.626 and 124.646 and 168.164 and 143.426 and 132.43
LTP time course, normalized response per slice (sheet 5d) (Time (min) -2): 105.316 and 104.903 and 86.159 and 100.7 and 102.934 and 111.991 and 100.871 and 90.8613 and 108.408 and 99.877 and 100.511 and 99.326 and 97.9659 and 101.831 and 107.897
LTP time course, normalized response per slice (sheet 5d) (Time (min) -4): 102.838 and 104.535 and 87.5747 and 99.3595 and 101.459 and 104.616 and 103.249 and 75.684 and 101.138 and 101.174 and 99.4129 and 111.767 and 97.478 and 110.855 and 98.9622
LTP time course, normalized response per slice (sheet 5d) (Time (min) -6): 101.103 and 99.9338 and 95.867 and 99.0615 and 102.77 and 102.977 and 108.004 and 99.3605 and 103.117 and 97.9481 and 103.441 and 114.539 and 103.918 and 97.8041 and 96.1755
